Among the test systems are NCI-H522 lung; LOX IMVI melanoma; RXF 393 renal; HOP-92 NSCLC; SR leukemia; HCT-116 colon; HL-60(TB) leukemia; SK-MEL-28 melanoma; KM12 colon.
Assay in all cases: NCI tumour cell line growth inhibition, 48 h

Several values for one entry are separate records, joined by “and”; a condition that tells them apart may be missing. Identical values can stand only once.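 Growth conditions: 96-well plates. Treatment: test compound, 48 hours, 5 concentrations. Analysis: linear interpolation between bracketing concentrations; unreached endpoints set to highest concentration. Abbreviation: GI50, concentration required for 50% inhibition of growth. TGI marks complete inhibition of growth.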 Bounds are passed on as bounds.

As for `O=C1/C(=C/c2cccc([N+](=O)[O-])c2)COc2ccc(O)cc21`, the GI50 in the assay with NCI-H522 lung is 1.47 µM; in the assay on LOX IMVI melanoma it was 1.49 µM; in the assay with RXF 393 renal, 1.73 µM; in the assay with HOP-92 NSCLC, 2.51 µM; in the assay with SR leukemia, 0.278 µM; in the assay with HCT-116 colon, 1.19 µM. Also, the GI50 was 1.69 µM in the assay on HL-60(TB) leukemia, 2.02 µM in the assay with SK-MEL-28 melanoma and 1.68 µM in the assay on KM12 colon. For the same compound, the TGI with NCI-H522 lung was found to be 3.02 µM; with LOX IMVI melanoma, 2.92 µM; in the assay with RXF 393 renal, 3.28 µM; with HOP-92 NSCLC, 7.89 µM; with SR leukemia it was 1.18 µM; in the assay on HCT-116 colon, 2.82 µM. Further, the TGI with HL-60(TB) leukemia was determined as 4.03 µM; with SK-MEL-28 melanoma it was 4.24 µM; in the assay with KM12 colon, 3.32 µM.
With `COC1CCC2C(NS(=O)(=O)c3ccc(C)cc3)CCCC2O1` (stereo not given) (tested in a mixture with another compound), the TGI in the assay on NCI-H522 lung was 31.5 µM; in the assay with LOX IMVI melanoma it was 13 µM; with RXF 393 renal it was greater than 34.5 µM; in the assay with HOP-92 NSCLC, 28 µM; in the assay with HCT-116 colon, 15.8 µM; with HL-60(TB) leukemia it was 18.5 µM. The TGI with SK-MEL-28 melanoma and in the assay on KM12 colon was greater than 34.5 µM throughout.
With `C/C(CC(=O)CCC(=O)Nc1cccc(C(F)(F)F)c1)=N\NC(=O)NN`, the TGI in the assay on NCI-H522 lung, with HOP-92 NSCLC, in the assay with HCT-116 colon, with HL-60(TB) leukemia, with SK-MEL-28 melanoma and in the assay with KM12 colon was greater than 100 µM in each case.
On to `CCOC(=O)CN1C(=O)c2cccc3cc([N+](=O)[O-])cc(c23)C1=O`, for which the TGI with LOX IMVI melanoma amounted to 2.74 µM; in the assay with RXF 393 renal, 3.89 µM; in the assay on HOP-92 NSCLC, 6.21 µM; in the assay with SR leukemia, 0.381 µM; in the assay on HCT-116 colon it was 3 µM; with HL-60(TB) leukemia, 2.32 µM. Besides, the figures for the TGI with SK-MEL-28 melanoma and in the assay with KM12 colon were 7.39 µM and 8.73 µM, respectively.
Take `Cc1cc(C)nc(NS(=O)(=O)c2ccc(NC(=O)c3ccc(Cl)c4c(Nc5ccc(S(=O)(=O)Nc6nc(C)cc(C)n6)cc5)c5ccccc5nc34)cc2)n1`: the TGI in the assay with LOX IMVI melanoma was greater than 100 µM; with RXF 393 renal, 4.83 µM; in the assay with HOP-92 NSCLC, 5.93 µM; in the assay on HL-60(TB) leukemia it was 11 µM; in the assay on SK-MEL-28 melanoma, greater than 100 µM; with KM12 colon, greater than 100 µM.
For the compound `O=C1/C(=C/c2ccccc2)CN(C(=O)C(Cl)(Cl)Cl)C/C1=C\c1ccccc1`, the TGI with NCI-H522 lung stood at 4.08 µM; in the assay with LOX IMVI melanoma, 2.18 µM; with RXF 393 renal it was 4.02 µM; in the assay on SR leukemia, 7.1 µM; in the assay with HCT-116 colon, 1.36 µM; in the assay on HL-60(TB) leukemia, 0.524 µM. The TGI in the assay with SK-MEL-28 melanoma was 3.33 µM; with KM12 colon it was 3.4 µM.
As for `N#CC(c1ccc(Cl)cc1)c1cccc(C(C#N)c2ccc(Cl)cc2)n1` (stereo not given), the TGI in the assay with NCI-H522 lung was greater than 100 µM; in the assay with HOP-92 NSCLC, 60.6 µM; with SR leukemia it was greater than 100 µM; in the assay on HL-60(TB) leukemia it was greater than 100 µM; in the assay on SK-MEL-28 melanoma it was greater than 100 µM; with KM12 colon, greater than 100 µM.
`CN(C)C(=N)c1ccccc1`: the TGI in the assay on NCI-H522 lung, in the assay on LOX IMVI melanoma, in the assay on RXF 393 renal, in the assay with HOP-92 NSCLC, with SR leukemia and in the assay on HCT-116 colon was greater than 100 µM throughout. For the same compound, the TGI in the assay on HL-60(TB) leukemia, in the assay on SK-MEL-28 melanoma and in the assay with KM12 colon was greater than 100 µM in each case.
Regarding `O=C(O)c1ccccc1[Se][Se]c1ccccc1C(=O)O`, the TGI is greater than 100 µM in the assay on NCI-H522 lung; 76.1 µM with LOX IMVI melanoma; greater than 100 µM with RXF 393 renal; greater than 100 µM in the assay with HOP-92 NSCLC; greater than 100 µM with HCT-116 colon; greater than 100 µM with HL-60(TB) leukemia. The TGI in the assay with SK-MEL-28 melanoma was greater than 100 µM; in the assay on KM12 colon, 89.1 µM.
For `CC12CCC(O)CC1CCC1C2CCC2(C)C(C3=CC(=O)OC3)CCC12O` (stereo not given), the TGI in the assay with NCI-H522 lung was 4.9 µM; in the assay with LOX IMVI melanoma, 10.6 µM; in the assay with RXF 393 renal, 3.55 µM; in the assay on HOP-92 NSCLC it was greater than 41.9 µM; in the assay on SR leukemia, greater than 100 µM; in the assay with HCT-116 colon, 4.44 µM. In addition, the TGI is 8.36 µM in the assay on HL-60(TB) leukemia, 33.7 µM in the assay on SK-MEL-28 melanoma and greater than 43.3 µM in the assay with KM12 colon.
In the case of `O=C(COc1ccc(Br)cc1Br)N1N=C(c2ccc([N+](=O)[O-])o2)CC1(O)c1ccccc1` (stereo not given), the TGI is 20.7 µM in the assay on NCI-H522 lung; 18.4 µM with LOX IMVI melanoma; 15.7 µM with RXF 393 renal; 8.77 µM in the assay with SR leukemia; 33.2 µM with HCT-116 colon; 17.1 µM in the assay on HL-60(TB) leukemia. Moreover, the TGI with SK-MEL-28 melanoma turned out to be 28 µM; in the assay on KM12 colon, 45.3 µM.
In the case of `COC(=O)[C@@H]1[C@H](O)[C@H](C)[C@H](O)[C@@](C)(O)/C=C\C=C(C)C(=O)Nc2c(C)c(OC(C)=O)c3c(c2O)C(=O)C(C)=C2OCOC(=C23)C(C)=C[C@@](C)(O)[C@H](O)[C@@H](C)[C@H]1OC(C)=O`, the GI50 in the assay with NCI-H522 lung was 17.8 µM; in the assay with SR leukemia, 58 µM and 24.3 µM and 28.4 µM; with HCT-116 colon, 59.7 µM; in the assay on HL-60(TB) leukemia it was 11.5 µM; with KM12 colon, greater than 66.9 µM. In addition, the TGI in the assay with NCI-H522 lung was > 100 µM and 66.9 µM and 43.6 µM; with LOX IMVI melanoma, > 100 µM and 66.9 µM and 41.7 µM; in the assay with RXF 393 renal, greater than 100 µM; in the assay with HOP-92 NSCLC, greater than 100 µM; in the assay on SR leukemia, > 100 µM and 63.8 µM and 89 µM; in the assay with HCT-116 colon, > 100 µM and 66.9 µM. Moreover, the TGI in the assay on HL-60(TB) leukemia is > 100 µM and 64.6 µM and 39.9 µM; in the assay with SK-MEL-28 melanoma, greater than 100 µM; with KM12 colon, greater than 100 µM.
Consider `O=C(O)CCc1coc2ccc(O)cc12`, for which the TGI in the assay with LOX IMVI melanoma, with RXF 393 renal, with HOP-92 NSCLC, in the assay on HCT-116 colon, in the assay on HL-60(TB) leukemia and with SK-MEL-28 melanoma was greater than 100 µM throughout.
As to `COc1ccc2c3c1C(=O)CCCC3CO2` (stereo not given), the TGI in the assay with NCI-H522 lung, with LOX IMVI melanoma, in the assay with RXF 393 renal, in the assay on HOP-92 NSCLC, in the assay with HL-60(TB) leukemia and with SK-MEL-28 melanoma was greater than 100 µM throughout. The compound further displayed a TGI with KM12 colon greater than 100 µM.
`C=C1C(=O)C23CC1CCC2C12CO[C@@H]4OCC(C)(CC[C@@H]1OC3=O)C42` (stereo not given in full): the TGI stood at 2.33 µM with NCI-H522 lung; 3.44 µM with LOX IMVI melanoma; 6.72 µM with RXF 393 renal; 5.78 µM with HOP-92 NSCLC; 26.4 µM with SR leukemia; 6.33 µM with HCT-116 colon. For the same compound, the TGI in the assay with HL-60(TB) leukemia worked out at 19.5 µM; with SK-MEL-28 melanoma, 4.41 µM; in the assay with KM12 colon, 17.3 µM.

The record behind these values is PubChem BioAssay (NCI).
